According to ChEMBL document CHEMBL1201862, “PubChem BioAssay data set” (2004):
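1) Cells in 96-well plates. 2) Compound, 48 h, 5 concentrations. 3) Linear interpolation between surrounding doses. 4) Unreached endpoint = highest concentration. GI50: concentration for 50% inhibition of growth.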 Active and inactive are the calls of the source. Cut-off read from the data, not from the text of the source: active = GI50 up to about 1.1 µM and inactive = higher.

Assays:
Assay in all cases: NCI tumour cell line growth inhibition, 48 h
MDA-MB-435 = tested on: MDA-MB-435
COLO 205 = tested on: COLO 205
HCC 2998 = tested on: HCC 2998
UACC-257 = tested on: UACC-257
SNB-75 = tested on: SNB-75
U-251 = tested on: U-251
T47D = tested on: T47D
SK-MEL-5 = tested on: SK-MEL-5
KM12 = tested on: KM12
IGROV-1 = tested on: IGROV-1
HCT-116 = tested on: HCT-116
UO-31 = tested on: UO-31
NCI-H522 = tested on: NCI-H522
HOP-62 = tested on: HOP-62
NCI-H226 = tested on: NCI-H226
MCF7 = tested on: MCF7
OVCAR-3 = tested on: OVCAR-3
Malme-3M = tested on: Malme-3M
786-0 = tested on: 786-0
SK-MEL-2 = tested on: SK-MEL-2

Cn1c(N)c(/C=N/NC(=O)CC#N)c(=O)n(C)c1=O
GI50 (MDA-MB-435): > 100 µM (inactive)
GI50 (COLO 205): > 100 µM (inactive)
GI50 (HCC 2998): > 100 µM (inactive)
GI50 (UACC-257): > 100 µM (inactive)
GI50 (SNB-75): > 100 µM (inactive)
GI50 (U-251): > 100 µM (inactive)
GI50 (T47D): > 100 µM (inactive)
GI50 (SK-MEL-5): > 100 µM (inactive)
GI50 (KM12): > 100 µM (inactive)
GI50 (IGROV-1): > 100 µM (inactive)
GI50 (HCT-116): > 100 µM (inactive)
GI50 (UO-31): > 100 µM (inactive)
GI50 (NCI-H522): > 100 µM (inactive)
GI50 (HOP-62): > 100 µM (inactive)
GI50 (NCI-H226): > 100 µM (inactive)
GI50 (MCF7): > 100 µM (inactive)
GI50 (OVCAR-3): > 100 µM (inactive)
GI50 (Malme-3M): 59.8 µM (inactive)
GI50 (786-0): > 100 µM (inactive)
GI50 (SK-MEL-2): > 100 µM (inactive)

N#CC1=C(N)OC(c2ccc([N+](=O)[O-])cc2)C1(C#N)C#N (stereo not given)
GI50 (MDA-MB-435): 17 µM (inactive)
GI50 (COLO 205): 5.94 µM (inactive)
GI50 (HCC 2998): 9.46 µM (inactive)
GI50 (UACC-257): 13.1 µM (inactive)
GI50 (SNB-75): 20.6 µM (inactive)
GI50 (U-251): 25.4 µM (inactive)
GI50 (T47D): 18.4 µM (inactive)
GI50 (SK-MEL-5): 9.48 µM (inactive)
GI50 (KM12): > 33.7 µM (inactive)
GI50 (IGROV-1): 15.6 µM (inactive)
GI50 (HCT-116): 9.77 µM (inactive)
GI50 (UO-31): 6.27 µM (inactive)
GI50 (NCI-H522): 6.62 µM (inactive)
GI50 (HOP-62): 20.7 µM (inactive)
GI50 (NCI-H226): 18.3 µM (inactive)
GI50 (MCF7): 15.6 µM (inactive)
GI50 (OVCAR-3): > 10 µM (inactive)
GI50 (Malme-3M): 10.2 µM (inactive)
GI50 (786-0): 9.66 µM (inactive)
GI50 (SK-MEL-2): 14.6 µM (inactive)

O=C(O)Cn1ccc(=O)c2c([N+](=O)[O-])cccc21
GI50 (MDA-MB-435): > 100 µM (inactive)
GI50 (COLO 205): > 100 µM (inactive)
GI50 (HCC 2998): > 100 µM (inactive)
GI50 (UACC-257): > 100 µM (inactive)
GI50 (SNB-75): > 100 µM (inactive)
GI50 (U-251): > 100 µM (inactive)
GI50 (T47D): > 100 µM (inactive)
GI50 (SK-MEL-5): > 100 µM (inactive)
GI50 (KM12): > 100 µM (inactive)
GI50 (IGROV-1): > 100 µM (inactive)
GI50 (HCT-116): > 100 µM (inactive)
GI50 (UO-31): > 100 µM (inactive)
GI50 (NCI-H522): > 100 µM (inactive)
GI50 (HOP-62): > 100 µM (inactive)
GI50 (NCI-H226): > 100 µM (inactive)
GI50 (MCF7): > 100 µM (inactive)
GI50 (OVCAR-3): > 100 µM (inactive)
GI50 (Malme-3M): > 100 µM (inactive)
GI50 (786-0): > 100 µM (inactive)
GI50 (SK-MEL-2): > 100 µM (inactive)

Cc1cc(CNC(=O)OCc2ccccc2)c(C)c2c1Oc1ccccc1O2
GI50 (MDA-MB-435): > 100 µM (inactive)
GI50 (COLO 205): 50.1 µM (inactive)
GI50 (HCC 2998): > 100 µM (inactive)
GI50 (UACC-257): > 100 µM (inactive)
GI50 (SNB-75): 11.8 µM (inactive)
GI50 (U-251): 18.8 µM (inactive)
GI50 (T47D): 25.8 µM (inactive)
GI50 (SK-MEL-5): > 100 µM (inactive)
GI50 (KM12): 43.6 µM (inactive)
GI50 (IGROV-1): 24.2 µM (inactive)
GI50 (HCT-116): 36.6 µM (inactive)
GI50 (UO-31): 28.6 µM (inactive)
GI50 (NCI-H522): 13.9 µM (inactive)
GI50 (HOP-62): 17.4 µM (inactive)
GI50 (NCI-H226): 26.5 µM (inactive)
GI50 (MCF7): 49.5 µM (inactive)
GI50 (OVCAR-3): 57.8 µM (inactive)
GI50 (Malme-3M): 75.9 µM (inactive)
GI50 (786-0): 15 µM (inactive)
GI50 (SK-MEL-2): < 0.01 µM (active)
